In assay [1] the target is T1, Serine/threonine-protein kinase WNK4 [1-444] (Homo sapiens, UniProt Q96J92).
T1 construct: 1-444
As to the kind of experiment: WNK In Vitro Radiometric Assays. Particulars: pH 7.3. The protocol: (§1) The assay utilized 5 to 10 nM of WNK1−4 protein compared to 25 nM used for mobility shift assay, enabling a more accurate comparison of selectivity among potent inhibitors. Assays measured the incorporation of 33P from [γ-33P]ATP into myelin basic protein (MBP) coated in the wells of 96-well ScintiPlates (PerkinElmer). Each well of the MBP-coated ScintiPlates held 100 μL of a solution containing 20 mM HEPES at pH 7.3, 5 mM MnCl2 (WNK1 and WNK4) or 3 mM MnCl2 (WNK2 and WNK3), 0.01% Tween-20 (WNK1, WNK3, and WNK4) or 0.02% Tween-20 (WNK2), 1 mM TCEP, 2% DMSO, 1 μM ATP (WNK1, WNK3, and WNK4) or 2 μM ATP (WNK2), 1 μCi [γ -33P]ATP (WNK1, WNK2, WNK4) or 0.25 μCi [γ-33P]ATP (WNK3), WNK kinase enzyme (5 nM WNK1, 10 nM WNK2, 5 nM WNK3, or 10 nM WNK4), and the compound at the desired concentration. The plate was sealed and mixed for 20 s at 800 rpm on a benchtop plate shaker. The plate was then placed in a 25 °C shaking incubator at 175 rpm. Reactio

Assay [2] has as its target T2, Serine/threonine-protein kinase WNK2 [166-489] (Homo sapiens, UniProt Q9Y3S1).
T2 construct: 166-489
As to the kind of experiment: WNK In Vitro Radiometric Assays. Particulars: pH 7.3. The protocol: as §1

The target in assay [3] is T3, Serine/threonine-protein kinase WNK3 [1-434] (Homo sapiens, UniProt Q9BYP7).
T3 construct: 1-434
T3 sequence (Q9BYP7 1-434): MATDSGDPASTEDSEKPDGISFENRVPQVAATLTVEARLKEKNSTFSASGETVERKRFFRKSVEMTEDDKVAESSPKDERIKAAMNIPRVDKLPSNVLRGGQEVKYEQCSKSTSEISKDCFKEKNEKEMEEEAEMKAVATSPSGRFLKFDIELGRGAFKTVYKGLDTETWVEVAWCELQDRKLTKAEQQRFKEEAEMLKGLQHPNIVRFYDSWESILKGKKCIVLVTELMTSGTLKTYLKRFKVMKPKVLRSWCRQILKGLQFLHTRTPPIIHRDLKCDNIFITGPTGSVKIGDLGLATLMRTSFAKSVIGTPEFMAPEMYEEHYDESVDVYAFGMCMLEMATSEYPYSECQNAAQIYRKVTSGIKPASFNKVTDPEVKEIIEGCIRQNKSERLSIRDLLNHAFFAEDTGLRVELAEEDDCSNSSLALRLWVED
Description: WNK In Vitro Radiometric Assays. Conditions: pH 7.3. The protocol:
as §1

Assay [4] addresses T4, Serine/threonine-protein kinase WNK1 [1-491] (Homo sapiens, UniProt Q9H4A3).
T4 construct: 1-491
Description: WNK In Vitro Radiometric Assays. Conditions: pH 7.3. The protocol:
as §1

Assay [5] has as its target T4, Serine/threonine-protein kinase WNK1 [1-491]. As to the kind of experiment: WNK1 Mobility Shift Assay. Particulars: pH 7.5. The protocol: A mixture of fluorescein labeled OSR1 peptide substrate (Toray Research Center, Inc.) and ATP was prepared with final concentrations of 10 and 25 μM, respectively, in 7 μL of reaction buffer [20 mM HEPES Na (pH 7.5), 1 mM MnCl2, 0.01% Tween 20, and 2 mM DTT]. Compounds at final concentrations from 0.003 to 100 μM in 1 μL were added to the peptide/ATP mixture at a final DMSO concentration of 10%. The reaction was initiated by the addition of 2 μL of GST-WNK1 (1−491; Carna Biosciences) that was 86% pure at a final concentration of 25 nM in a 384-well plate. After incubation for 3 h at 25 °C, where 15% conversion of the substrate to the product was observed, 10 μL of a stop buffer containing 0.2% coating-3 reagent with 2 mM EDTA was added. For 800 μM ATP, the WNK1 assay was performed for 50 min at 25 °C, where 15% conversion of the substrate to the product was observed. Aliquots from each well were transferred onto a four-sipper chip on a Labchip3

Several values for one entry are separate records, joined by “and”; a condition that tells them apart may be missing. Identical values can stand only once.

T4 sequence (Q9H4A3 1-491): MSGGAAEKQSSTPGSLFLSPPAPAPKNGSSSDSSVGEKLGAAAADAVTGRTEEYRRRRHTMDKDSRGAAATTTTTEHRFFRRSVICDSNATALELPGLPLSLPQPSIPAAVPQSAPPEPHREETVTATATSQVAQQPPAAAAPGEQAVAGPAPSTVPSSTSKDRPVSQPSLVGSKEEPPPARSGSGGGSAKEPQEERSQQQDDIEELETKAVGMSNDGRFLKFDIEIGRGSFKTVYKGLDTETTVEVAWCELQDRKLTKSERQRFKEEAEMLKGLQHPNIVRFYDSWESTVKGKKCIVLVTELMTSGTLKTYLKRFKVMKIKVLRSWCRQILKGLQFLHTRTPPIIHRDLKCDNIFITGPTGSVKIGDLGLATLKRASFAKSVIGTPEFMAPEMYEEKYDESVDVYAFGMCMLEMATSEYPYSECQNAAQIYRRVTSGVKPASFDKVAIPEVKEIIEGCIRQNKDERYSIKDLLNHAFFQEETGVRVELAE
T1 sequence (Q96J92 1-444): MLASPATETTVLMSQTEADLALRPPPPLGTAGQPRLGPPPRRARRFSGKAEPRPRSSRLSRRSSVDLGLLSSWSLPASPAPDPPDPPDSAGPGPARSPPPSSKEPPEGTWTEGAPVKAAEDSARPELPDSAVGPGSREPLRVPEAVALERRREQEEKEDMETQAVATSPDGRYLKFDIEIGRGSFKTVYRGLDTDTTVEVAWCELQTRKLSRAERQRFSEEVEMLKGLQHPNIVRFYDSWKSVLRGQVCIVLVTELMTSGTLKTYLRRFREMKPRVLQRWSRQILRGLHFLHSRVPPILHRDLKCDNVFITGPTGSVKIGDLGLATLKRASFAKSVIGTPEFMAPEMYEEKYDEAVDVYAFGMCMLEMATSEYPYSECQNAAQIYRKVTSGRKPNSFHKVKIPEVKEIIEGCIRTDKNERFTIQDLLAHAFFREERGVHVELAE
T2 sequence (Q9Y3S1 166-489): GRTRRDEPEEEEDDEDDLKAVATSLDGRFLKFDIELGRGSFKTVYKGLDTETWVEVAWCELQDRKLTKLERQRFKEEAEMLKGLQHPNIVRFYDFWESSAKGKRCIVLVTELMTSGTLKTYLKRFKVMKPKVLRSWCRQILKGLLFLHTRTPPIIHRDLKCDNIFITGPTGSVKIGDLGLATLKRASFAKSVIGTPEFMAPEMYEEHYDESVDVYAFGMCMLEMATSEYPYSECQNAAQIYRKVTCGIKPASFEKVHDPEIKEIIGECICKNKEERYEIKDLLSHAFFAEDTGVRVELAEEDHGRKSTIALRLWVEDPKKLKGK

Regarding `CNc1nc(-c2ccc3c(c2)CCN3C(=O)c2ccccc2OCc2ccc(Cl)cc2)cs1` [(2-((4-Chlorobenzyl)oxy)phenyl)(5-(2-(methylamino)thiazol-4-yl)indolin-1-yl)methanone (Compound 2)], the IC50 (usually the point on the concentration scale where inhibition reaches its midpoint) in assay [1] is 187 nM; in assay [2], 50 nM; in assay [3] it was 377 nM; in assay [4], 64 nM; in assay [5], 180 nM and 150 nM.
